Results published in US10233144B2, “Crystalline form of AHU377, preparation method and use thereof” (CRYSTAL PHARMATECH CO., LTD., priority 2015, dated 2019).

Assay: Hygroscopicity assessment by dynamic vapor sorption (DVS)
Type: physicochemical
Details: 25° C.; for weight gain under 80% RH: DVS, 10 mg sample
Protocol: Dynamic Vapor Sorption (DVS) was measured via a SMS (Surface Measurement Systems) DVS Intrinsic. Typical Parameters for DVS test are listed below. Temperature: 25° C. Gas and flow rate: N2, 200 mL/min dm/dt: 0.002%/min RH range: 0% RH to 95% RH 10 mg of crystalline Form I of the present disclosure was tested using dynamic vapor sorption (DVS). 4. The DVS isotherm plot of crystalline Form I is depicted in FIG. 4. About hygroscopicity characterization description and definition of hygroscopicity (Chinese Pharmacopoeia 2010 edition appendix XIX J Drug hygroscopic test guidelines, test at 25° C.±1° C., 80% Relative Humidity) • deliquescent: sufficient water is absorbed to form a liquid; • very hygroscopic: increase in mass is equal to or greater than 15 percent; • hygroscopic: increase in mass is less than 15 percent and equal to or greater than 2 percent; • slightly hygroscopic: increase in mass is less than 2 percent and equal to or greater than 0.2 percent. • no or almost no hygroscopic: increase in mass is less than 0.2 percent

weight gain under 80% RH: 0.35%
weight gain under 80% RH (listed as crystalline Form I): 0.35%
SMILES: CCOC(=O)[C@H](C)C[C@@H](Cc1ccc(-c2ccccc2)cc1)NC(=O)CCC(=O)O [Crystalline Form I of AHU377, (2R,4S)-5-(Biphenyl-4-yl)-4-[(3-carboxypropionyl)amino]-2-methylpentanoic acid ethyl ester]
hygroscopicity (class according to hygroscopic test guidelines) (Chinese Pharmacopoeia 2010 appendix XIX J, 80% Relative Humidity): slightly hygroscopic (increase in mass is less than 2 percent and equal to or greater than 0.2 percent)
